Where “and” joins values, the source holds several entries; their conditions need not be identical. Equal values may be shown once. Entries after “also recorded” stand apart in the source; their conditions may differ. Read-outs that look alike come from different tables or passages of the source.
Experiments:
Format in all cases: in vivo, BALB/c mice
[1] = test system: Influenza virus strain PR8; assay: Propionate intranasal efficacy study, influenza: lung viral load by PCR (Example 1); settings: 100 mg/kg intranasally on days -3, -1, 0; day 5 post infection; compared to saline
Protocol: On day 0 all mice were infected with Influenza virus strain PR8. On day 5 post infection, mice were sacrificed, lungs isolated and viral load determined by PCR.
Female BALB/c mice were purchased from Charles River Laboratories at 8 weeks of age. […] On day 0 mice were infected with 100 PFU of Influenza strain PR8 in 30 μl of PBS solution. On day 5 post infection, mice were sacrificed and lungs were removed and placed in Tri reagent solution. Total RNA was purified from cells obtained from whole lung tissue using Tri reagent. Real time PCR was carried out according to manufacturers instructions using the quantifast SYBR green RT-PCR kit (Qiagen). The following primers Influenza matrix protein primers were used: forward 5′-[…]-3′, reverse 5′-[…]-3′. B-actin primers forward 5′-[…]-3′, reverse 5′-[…]-3′ as previously described van Elden, L. J., M. Nijhuis, P. Schipper, R. Schuurman, A. M. van Loon. 2001. Simultaneous detection of influenza viruses A and B using real-time quantitative PCR. J. Clin. Microbiol. 39: 196-200.

[2] = test system: metapneumonia virus A1 6621 (MPV); settings: 100 mg/kg intranasally day -1 and 0; day 5 post infection
airway eosinophilia = assay: Propionate intranasal efficacy study, HDM asthma: BAL differential cell counts (Example 3); settings: 100 mg/kg intranasally; all treatment regimes (pretreatment; pretreatment and priming; pretreatment, priming and challenge); day 14
Protocol: On days 0, 2, 4, 7, 8 and 11 mice were exposed to 15 ug of house dust mite extract (Greer) intranasally. On day 14, all mice were sacrificed and bronchoalveolar lavage (BAL) was performed with sterile PBS. The total number of macrophages (FIG. 3B), eosinophils (FIG. 3A), lymphocytes (FIG. 3C) and neutrophils (FIG. 3D) was determined by total and differential cell counts using standard morphological and cytochemical techniques.
BAL was performed by flushing the airways three times with 1 ml PBS. Total BAL cells were counted using a Coulter Counter (IG Instruments) and spun onto glass slides using a Cytospin 2 (Shandon Southern Products, Ltd.). Cells were then stained with Diff Quick staining set (Siemens-Dade Behring). Percentages of eosinophils, macrophages, lymphocytes and neutrophils were determined microscopically using standard morphological and cytochemical criteria.
Female BALB/c mice were purchased from Charles River Laboratories at 8 weeks of age. […] On days 0, 2, 4, 7, 8 and 11 mice were exposed to 15 μg of house dust mite extract (Greer) per nasal. On day 14, all mice were sacrificed and bronchoalveolar lavage (BAL) was performed with sterile PBS. The total number of macrophages, eosinophils, lymphocytes and neutrophils was determined by total and differential cell counts using standard morphological and cytochemical techniques. […]

[3] = test system: Influenza A strain HK/PR8; settings: for delta Ct / flu/β-actin: lungs day 5, individual mice; for flu/β-actin: Experiment 3

Compound: CCC(=O)[O-].[Na+] [sodium propionate]
- viral load in the lungs [1]: markedly lower viral load
- protection against MPV infection [2]: exhibits efficacy in the protection against MPV infection
- airway eosinophilia (BAL eosinophils) (airway eosinophilia): statistically significant reductions
- Flu titer at 1 mg/kg compared with the other doses ([3]; Experiment 1, doses 100, 10, 1 mg/kg i.n.): lowest Flu titers
- delta Ct ([3]; Experiment 2, 0.01 mg/kg i.n. day 0, listed as NA Propionate, 0.01 mg/kg): 0.05776 and 0.1427 and 0.4687 and 0.01899 and 0.2875
- delta Ct ([3]; Experiment 2, 0.1 mg/kg i.n. day 0, listed as NA Propionate, 0.1 mg/kg): 0.3178 and 0.08239 and 0.2101 and 0.01484 and 0.2815
- delta Ct ([3]; Experiment 2, 1 mg/kg i.n. day 0, listed as NA Propionate, 1 mg/kg): 0.01819 and 0.02787 and 0.08699 and 0.009033 and 0.07967
- delta Ct ([3]; Experiment 2, 10 mg/kg i.n. day 0, listed as Na Propionate, 10 mg/kg): 0.1146 and 0.03546 and 0.05123 and 0.1345
- delta Ct ([3]; Experiment 2, 100 mg/kg i.n. day 0, listed as Na Propionate, 100 mg/kg): 0.02338 and 0.01681 and 0.2248 and 0.2282
- efficacy against influenza infection, dose titration ([3]; Experiment 2, dose of 0.1 mg/kg or less i.n.): lack of efficacy
- Flu titer / efficacy at 1 mg/kg compared with the other doses ([3]; Experiment 2, doses 100 to 0.01 mg/kg i.n.): highest efficacy; also recorded: lowest Flu titer
- efficacy against influenza infection, dose titration ([3]; Experiment 2, from 100 mg/kg to 1 mg/kg i.n.): trend towards efficacy
- flu/β-actin ([3]; 100 mg/kg i.n. Day 0, listed as Na Propionate, 100 mg/kg): 0.154 and 0.244 and 0.334 and 0.303
- flu/β-actin ([3]; 100 mg/kg i.n. Day +1, listed as Na Propionate, 100 mg/kg): 0.176 and 0.277 and 0.312 and 0.217
- optimal dose, intranasal ([3]; mouse, in vivo): 1 mg/kg
